Test: Emulsion stability with silicone-free water-in-oil emulsifiers
Format: physicochemical

## Laureth-2
  stability of the emulsion: did not yield stable emulsions

From US8883130B2, “Transparent antiperspirant gels” (Henkel AG & Co. KGaA, priority 2008, dated 2014)
